According to PMC10135297, “Peptide-Resorcinarene Conjugates Obtained via Click Chemistry: Synthesis and Antimicrobial Activity” (Antibiotics, 2023):
Values after ≈ are worked out from the molar mass of the structure shown. Like-named read-outs stand apart in the source and are kept apart here. Peptide text beside a SMILES is read from it.

What was measured:
E. coli ATCC 25922 = type: cell-based, Escherichia coli
Experimental: (§1) The minimum inhibitory concentration (MIC) was determined using a broth microdilution assay. Specifically, […] of Mueller Hinton broth and 90 μL of peptide (initial concentration 444 μg/mL) were added to a 96-well plate, with serial dilutions (200, 100, 50, 25, 12.5, and […] μg/mL). Then, 10 μL (5 × 10^5 CFU/mL) of inoculum was added to each well, and the final volume in each well was 100 μL. They were incubated for 24 h at 37 °C, and absorbance at 620 nm was measured using the ELISA reader. To determine the minimum bactericidal concentration (MBC), an aliquot was taken from each well and placed on a Mueller Hinton Agar plate. After 24 h of incubation at 37 °C, the MBC was determined. Each of these tests was performed in duplicate.

S. aureus ATCC 25923 = type: cell-based, Staphylococcus aureus; details: for MBC S. aureus 25923: ATCC 25923, 24 h; for MIC S. aureus 25923: broth microdilution, Mueller Hinton broth, 24 h at 37 °C, absorbance 620 nm, in duplicate, strain sensitive to vancomycin
Experimental: as §1

C. albicans SC5314 (S) = system: C. albicans SC5314 (S); parameters: method as in PMID 36358216; details: sensitive to fluconazole; cited from earlier work
[1] = system: C. albicans 256 HUSI-PUJ (R); parameters: method as in PMID 36358216; details: resistant to fluconazole; cited from earlier work
erythrocytes = type: cell-based
Experimental: First, 5.0 mL of heparinized peripheral blood was centrifuged at 1000 rpm for 7 min. The erythrocyte fraction was suspended in […] saline solution (SS) and washed twice by centrifugation at 1000 rpm for 7 min. The erythrocytes (2% hematocrit) were incubated with peptide (ranging from 6.2 to 200 µg/mL) for 2 h at 37 °C. SS was used as a negative control, while distilled water was used as a positive control. The mixtures were centrifuged, the supernatants were collected, and the absorbance was determined to be 540 nm.

MCF-7 cell line = details: cited from earlier work
Experimental: (§2) Finally, the cytotoxic effect of the conjugates over fibroblasts, MCF-7, and HeLa cell lines was evaluated (Figure 7).

HeLa cell line = details: cited from earlier work
Experimental: as §2

Q: Which MBC E. coli 25922 (E. coli ATCC 25922; ATCC 25922, 24 h) does the source give for `N=C(N)NCCC[C@H](NC(=O)[C@H](Cc1c[nH]c2ccccc12)NC(=O)[C@H](CCC(N)=O)NC(=O)[C@H](Cc1c[nH]c2ccccc12)NC(=O)[C@H](CCCNC(=N)N)NC(=O)[C@@H](N)CCCNC(=N)N)C(N)=O` [RRWQWR] (H-RRWQWR-NH2) here?
A: The MBC E. coli 25922 was 203 µM (≈ 200 µg/mL).

Q: And the MIC E. coli 25922 (E. coli ATCC 25922; ATCC 25922, 24 h)?
A: Its MIC E. coli 25922 is 203 µM (≈ 200 µg/mL).

Q: And the MBC S. aureus 25923 (S. aureus ATCC 25923)?
A: The MBC S. aureus 25923 was greater than 203 µM.

Q: And the MIC S. aureus 25923 (S. aureus ATCC 25923)?
A: The MIC S. aureus 25923 was greater than 203 µM.

Q: Which “MIC C. albicans strain ATCC SC5314” value (C. albicans SC5314 (S)) does the source give for RLLRRLLR here?
A: Its value is greater than 183 µM.

Q: And the “MIC clinical isolate C. albicans 256 HUSI-PUJ” value [1]?
A: Its value is greater than 183 µM.

Q: Which MBC E. coli 25922 (E. coli ATCC 25922; ATCC 25922, 24 h) does the source give for `CC(C)C[C@H](NC(=O)[C@H](CC(C)C)NC(=O)[C@@H](N)CCCNC(=N)N)C(=O)N[C@@H](CCCNC(=N)N)C(N)=O` [RLLR] (H-RLLR-NH2) here?
A: The MBC E. coli 25922 was greater than 359 µM.

Q: And the MIC E. coli 25922 (E. coli ATCC 25922; ATCC 25922, 24 h)?
A: The MIC E. coli 25922 was greater than 359 µM.

Q: And the MBC S. aureus 25923 (S. aureus ATCC 25923)?
A: Its MBC S. aureus 25923 is greater than 359 µM.

Q: And the MIC S. aureus 25923 (S. aureus ATCC 25923)?
A: Its MIC S. aureus 25923 is greater than 359 µM.

Q: Which results are given for “CTpH(F)-(AAC-(K)-RRWQWR)4 (rctt) [tetravalent (peptide)4-resorcinarene conjugate with four copies of RRWQWR on CTpH(F)]”?
A: Hemolytic effect at the MIC values (erythrocytes): Neither of the two conjugates exhibited a significant hemolytic effect; MBC E. coli 25922 (E. coli ATCC 25922; aliquot of each MIC well on Mueller Hinton Agar, 24 h at 37 °C, in duplicate): 36 µM; MIC E. coli 25922 (E. coli ATCC 25922; broth microdilution, Mueller Hinton broth, 24 h at 37 °C, absorbance 620 nm, in duplicate, strain susceptible to ciprofloxacin): 36 µM

Q: For (RRWQWR)4-K2-C2, which “Cytotoxicity against MCF-7” value (MCF-7 cell line) is on record?
A: The value was “exhibited cytotoxicity”.

Q: And the “Cytotoxicity against HeLa” value (HeLa cell line)?
A: Its value is “exhibited cytotoxicity”.
